{"source": "patent US20110200558A1", "about": "“Treatment or Prevention of Hepatitis C with Immunomodulator Compounds” (priority 2008, published 2011)", "key": {"HCV [1]": {"system": "HCV", "details": "within 5 days of therapy; cited from earlier work"}, "HCV [2]": {"system": "HCV", "details": "cited from earlier work"}, "HCV [3]": {"system": "HCV", "details": "higher doses (500-1500 mg/day); cited from earlier work"}, "HCV genotype 1 [4]": {"system": "HCV genotype 1", "details": "1500-mg twice-daily, 14 days, treatment-naive; cited from earlier work"}, "HCV genotype 1 [5]": {"system": "HCV genotype 1", "details": "cited from earlier work"}, "HCV genotype 1 [6]": {"system": "HCV genotype 1", "details": "400 mg thrice daily, 14 days monotherapy, nonresponders to pegylated interferon alfa; cited from earlier work"}, "HCV genotype 1 [7]": {"system": "HCV genotype 1", "details": "400 mg thrice daily for 14 days with pegylated interferon alfa-2b, previous nonresponders; cited from earlier work"}, "[8]": {"system": "genotype 1 chronic HCV infection", "assay": "Phase 2a dose ranging study of SCV-07: HCV viral load", "type": "in vivo, human", "source_text": "(§1) Here we describe interim results from a phase 2a, proof of principle, multicenter, randomized, controlled, single-blind dose ranging study, which is evaluating the safety and antiviral effect of SCV-07 in non-cirrhotic subjects with genotype 1 chronic HCV infection. Subjects enrolled in the study must have relapsed to previous treatment with PEGylated interferon and ribavirin; therefore any change in HCV viral load of greater than 0.5 log could be considered a significant response.\n(§2) Subjects are treated with 7 daily injections of SCV-07 (8 subjects per cohort) or saline (2 per cohort). […] Due to this apparent late response, a 30-day follow up visit was added for Cohort 3. Of the 4 subjects in this Cohort who have reached the 30-day visit, one has responded with a 1.2-log drop in HCV along with an increase in neopterin (see Table1)."}, "neopterin": {"system": "neopterin", "assay": "Phase 2a dose ranging study of SCV-07: plasma biomarker neopterin", "type": "in vivo, human", "details": "Cohort 3, 1.0 mg/kg (interim); single responding subject", "source_text": "as §1, §2\nA plasma concentration of neopterin above 10 nmol/L represents a “stimulated” immune system. […] Increased levels of neopterin also are correlated with increased sustained viral responses against HCV, and so is very strong evidence for the use of SCV-07 in this disease. The timing of the increase is also of interest."}, "[9]": {"assay": "Phase 2a dose ranging study of SCV-07: safety and tolerability", "type": "in vivo, human", "source_text": "as §1, §2\nFurther clinical investigation into longer treatment duration or addition to other anti-viral agents appears warranted."}, "HCV [10]": {"system": "HCV", "assay": "Combination treatment of hepatitis C patients, Examples 2-4", "type": "in vivo, human", "details": "Example 4: 0.1-2.0 mg/kg/day with STAT-C and/or ribavirin and/or pegylated interferon alpha-2b or alpha-2a, up to 48 weeks", "source_text": "Treatment, as in the examples above, results in achieving a sustained virological response (SVR) (which is accepted as cure and used as the efficacy endpoint for FDA approval), of 65-75%. This compares favorably with the current SOC SVR of 45-50%. This improved SVR is achieved in a regimen that has much less toxicity when compared to SOC (interferon sparing)."}, "thymocyte and lymphocyte": {"system": "thymocyte and lymphocyte", "details": "in vitro; cited from earlier work"}, "spleen lymphocytes": {"system": "spleen lymphocytes", "details": "cited from earlier work"}, "bone marrow cells": {"system": "bone marrow cells", "details": "cited from earlier work"}, "[11]": {"system": "5-FU-immune-suppressed animals", "details": "cited from earlier work"}, "sheep red blood cells": {"system": "sheep red blood cells", "details": "immunization with sheep red blood cells; cited from earlier work"}, "STAT-3": {"system": "STAT-3", "details": "cited from earlier work"}, "[12]": {"system": "Th1 cytokines IFN-g and IL-2, Th2 cytokines IL-4 and IL-10", "details": "cited from earlier work"}, "Pichinde virus": {"system": "Pichinde virus", "details": "Pichinde virus in guinea pigs; cited from earlier work"}, "[13]": {"system": "Cottontail papilloma virus", "details": "Cottontail papilloma virus in rabbits; cited from earlier work"}, "herpes virus HSV-2": {"system": "herpes virus HSV-2", "details": "guinea pigs infected with herpes virus HSV-2; cited from earlier work"}, "[14]": {"details": "1500 mg twice daily for 14 days"}, "[15]": {"details": "3000 mg twice daily for 14 days"}, "[16]": {"details": "4500 mg twice daily for 14 days"}}, "note": "Entries after “also recorded” stand apart in the source; their conditions may differ. Read-outs that look alike come from different tables or passages of the source."}
{"compound": "CCCCCOc1ccc(NC(=S)NC(=O)c2cccnc2)cc1C(F)(F)F", "note": "[ACH-806]", "values": [{"measurement": "drop in HCV RNA", "setting": "HCV [1]", "result": 2.38, "unit": "log"}]}
{"compound": "COc1ccc2c(O[C@@H]3C[C@H]4C(=O)N[C@]5(C(=O)O)C[C@H]5/C=C\\CCCCC[C@H](NC(=O)OC5CCCC5)C(=O)N4C3)cc(-c3csc(NC(C)C)n3)nc2c1", "note": "[BILN-2061]", "values": [{"measurement": "antiviral activity, HCV genotype 1", "setting": "HCV [2]; HCV genotype 1", "result": "potent antiviral activity"}, {"measurement": "virologic response, HCV genotype 2 and 3 patients", "setting": "HCV [2]; HCV genotype 2 and 3", "result": "less pronounced and more variable"}, {"measurement": "time of viral load reduction", "setting": "HCV [2]; phase 1", "result": "≤ 48", "unit": "h"}]}
{"compound": "CNC(=O)c1c(-c2ccc(F)cc2)oc2cc(N(CCO)S(C)(=O)=O)c(C3CC3)cc12", "note": "[HCV-796]", "values": [{"measurement": "drop in the HCV RNA viral load", "setting": "HCV [3]", "result": "~1.2", "unit": "log"}]}
{"compound": "CC(C)C(=O)OC[C@@]1(N=[N+]=[N-])O[C@@H](n2ccc(N)nc2=O)[C@H](OC(=O)C(C)C)[C@@H]1OC(=O)C(C)C", "note": "[R1626]", "values": [{"measurement": "reduction in HCV RNA", "setting": "HCV genotype 1 [4]", "result": "approximately 1.2 log"}, {"measurement": "Mean HCV viral reduction", "setting": "HCV genotype 1 [5]; 500 mg twice daily for 14 days", "result": 0.3, "unit": "log 10"}, {"measurement": "median HCV viral reduction", "setting": "HCV genotype 1 [5]; 500 mg twice daily for 14 days", "result": 0.2, "unit": "log 10"}, {"measurement": "Mean HCV viral reduction", "setting": "HCV genotype 1 [5]; [14]", "result": 1.2, "unit": "log 10"}, {"measurement": "median HCV viral reduction", "setting": "HCV genotype 1 [5]; [14]", "result": 0.8, "unit": "log 10"}, {"measurement": "Mean HCV viral reduction", "setting": "HCV genotype 1 [5]; [15]", "result": 2.6, "unit": "log 10"}, {"measurement": "median HCV viral reduction", "setting": "HCV genotype 1 [5]; [15]", "result": 2.7, "unit": "log 10"}, {"measurement": "Mean HCV viral reduction", "setting": "HCV genotype 1 [5]; [16]", "result": 3.7, "unit": "log 10"}, {"measurement": "median HCV viral reduction", "setting": "HCV genotype 1 [5]; [16]", "result": 4.1, "unit": "log 10"}]}
{"compound": "CC(C)(C)NC(=O)N[C@H](C(=O)N1C[C@H]2[C@@H]([C@H]1C(=O)NC(CC1CCC1)C(=O)C(N)=O)C2(C)C)C(C)(C)C", "note": "(stereo partly shown) [SCH503034]", "values": [{"measurement": "drop in HCV RNA from the baseline value", "setting": "HCV genotype 1 [6]", "result": "approximately 2 log"}, {"measurement": "reduction in HCV RNA", "setting": "HCV genotype 1 [7]", "result": 2.88, "unit": "log"}]}
{"compound": "N[C@H](CCC(=O)N[C@@H](Cc1c[nH]c2ccccc12)C(=O)O)C(=O)O", "note": "[SCV-07, γ-D-glutamyl-L-tryptophan]", "values": [{"measurement": "HCV viral load response", "setting": "[8]; Cohort 1, 0.01 mg/kg", "result": "no responses"}, {"measurement": "subjects with decrease in viral load and increase in neopterin", "setting": "[8]; Cohort 2, 0.10 mg/kg, day 14 follow up visit", "result": 2, "unit": "subjects"}, {"measurement": "HCV viral load (log10 decrease) Day 30", "setting": "[8]; Cohort 3, 1.0 mg/kg (interim), 7 daily injections, single responding subject, 30-day visit", "result": 1.2, "unit": "log10"}, {"measurement": "drop in HCV", "setting": "[8]; Cohort 3, one of 4 subjects at the 30-day visit", "result": 1.2, "unit": "log"}, {"measurement": "Neopterin (nmol/L) Day 30", "setting": "neopterin", "result": 33, "unit": "nmol/L"}, {"measurement": "SAEs reported", "setting": "[9]; all 3 dose groups", "result": "No SAEs were reported"}, {"measurement": "discontinuation of treatment due to AEs", "setting": "[9]; all 3 dose groups", "result": "no subject had to discontinue treatment due to AEs"}, {"measurement": "tolerability", "setting": "[9]; all 3 dose groups", "result": "well tolerated"}, {"measurement": "changes in ALT from baseline", "setting": "[9]; any of the subjects", "result": "No significant changes"}, {"measurement": "response against HCV", "setting": "HCV [10]", "result": "improved response"}, {"measurement": "Con-A-induced thymocyte and lymphocyte proliferation", "setting": "thymocyte and lymphocyte", "result": "increases"}, {"measurement": "Con-A-induced interleukin-2 (IL-2) production and IL-2 receptor expression by spleen lymphocytes", "setting": "spleen lymphocytes", "result": "increases"}, {"measurement": "expression of Thy-1.2 on bone marrow cells", "setting": "bone marrow cells", "result": "stimulates expression"}, {"measurement": "immunostimulatory effect", "setting": "[11]", "result": "strong immunostimulatory effect"}, {"measurement": "immunostimulatory effect", "setting": "sheep red blood cells", "result": "strong immunostimulatory effect"}, {"measurement": "STAT-3 dependent signaling / STAT3 activity", "setting": "STAT-3", "result": "inhibition; also recorded: inhibit"}, {"measurement": "Th2 cytokines IL-4 and IL-10", "setting": "[12]", "result": "decreasing"}, {"measurement": "production of the Th1 cytokines IFN-g and IL-2", "setting": "[12]", "result": "increases"}, {"measurement": "survival", "setting": "Pichinde virus", "result": "increased survival"}, {"measurement": "survival", "setting": "[13]", "result": "increased survival"}, {"measurement": "recurrence", "setting": "herpes virus HSV-2", "result": "decreased recurrence"}]}
